Assay results taken from patent publication US12053459B2, “CDK2 inhibitors and methods of using the same” (Cedilla Therapeutics, Inc., priority 2021, dated 2024).

Assays:
Kuramochi cells = test: BrdU cell proliferation assay (colorimetric ELISA), Kuramochi cells; assay type: cell-based; conditions: class symbols A-D
Summary of the method: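 Proliferation was read as BrdU incorporation: a 1 h pulse, then fixation and peroxidase-antibody ELISA at 450 nm, with values normalized to DMSO after empty-well subtraction. Treatment lasted 4 days on Kuramochi cells seeded at 2,000/well, using four 3-fold compound dilutions from 10 mM stocks. RB^KO Kuramochi cells were run in parallel for specificity.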

CDK2/Cyclin E1(14-475) [1] = biological target: T1, CDK2/Cyclin E1(14-475) (Homo sapiens, UniProt P24941); test: HotSpot kinase inhibition assay (radiometric, Reaction Biology Corporation); assay type: biochemical; conditions: 10 μM ATP, class symbols A-D
Protocol: Inhibition of a select panel of CDK2/CCNE1 activities in the presence of compounds of the present disclosure was evaluated using the HotSpot™ assay (proprietary to Reaction Biology Corporation). In the assay, activated CDK2/Cyclin E1 catalyzes the transfer of radioactive phosphate to amino acid residues of peptide or protein substrates, which are detected radiometrically. […] Reactions contained 20 mM HEPES pH 7.5, 10 mM MgCl2, 1 mM EGTA, 2 mM DTT, 0.02% Brij35, 0.02 mg/mL BSA, 0.1 mM Na3VO4, 1% DMSO, 1.5 nM CDK2/Cyclin E1(14-475), 10 μM ATP, and 20 μM Histone H1 protein isolated from calf thymus (Sigma).
CDK2/Cyclin E1 […] and Histone H1 were mixed in reaction buffer. To this mixture, was added dose titrations of inhibitor compounds in 100% DMSO by acoustic transfer. The compound mixtures were incubated for 20 minutes, then the kinase reactions were initiated by the addition of a mixture of ATP and ^33P ATP for final concentrations of 10 μM total ATP, 20 μM Histone H1, and 1.5 nM CDK2/Cyclin E1 (14-475). The reactions were carried out for 120 minutes, then spotted on a P81 ion exchange filter paper, and extensively washed with 0.75% phosphoric acid. The resulting radioactive counts were normalized to yield % activity, plotted against compound concentration, and fit to a four-parameter equation to determine the IC50 for each compound.

CDK2/Cyclin E1(14-475) [2] = biological target: T1, CDK2/Cyclin E1(14-475); test: Caliper LabChip EZ Reader mobility shift assay, inhibition of CDK2/Cyclin E1 activity; assay type: biochemical; conditions: class symbols A-D
Summary of the method: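 Mobility-shift readout of fluorescent peptide (1.5 μM final) phosphorylation by 2.5 nM CDK2/Cyclin E1(14-475) at 100 μM ATP, pH 7.5. Compounds pre-incubated 30 min with enzyme before substrate addition; 100-min reaction halted by EDTA, normalized % activity fitted to four-parameter curve for IC50.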

SMILES | IC50 (Kuramochi cells) [µM] | IC50 (CDK2/Cyclin E1(14-475) [1]) [µM] | IC50 (CDK2/Cyclin E1(14-475) [2]) [µM]
CNC(=O)[C@H](CCCc1ccccc1)NC(=O)C1CN(C(=O)Cc2c[nH]c3cc(Cl)ccc23)CC2CN(C(=O)c3ccc4nccnc4c3)CC21 (stereo partly shown) [I-17] | > 10 | > 100 | –
CNC(=O)[C@H](CCCc1ccccc1)NC(=O)C1CN(C(=O)Cc2c[nH]c3cccc(Cl)c23)CC2CN(C(=O)c3ccc(OC(C)C)c(OC)c3)CC21 (stereo partly shown) [I-221] | > 10 | > 100 | –
CNC(=O)[C@H](CCCc1ccccc1)NC(=O)C1CN(C(=O)Cc2c[nH]c3cc(Cl)ccc23)CC2CN(C(=O)c3ccc4[nH]c(C)cc4c3)CC21 (stereo partly shown) [I-2] | > 10 | 10 to 100 | –
CNC(=O)[C@H](CCCc1ccccc1)NC(=O)C1CN(C(=O)Cc2c[nH]c3cc(Cl)ccc23)CC2CN(C(=O)c3cncc(OC)n3)CC21 (stereo partly shown) [I-42] | > 10 | > 100 | –
CNC(=O)[C@H](CCCc1ccccc1)NC(=O)C1CN(C(=O)Cc2c[nH]c3cc(Cl)ccc23)CC2CN(C(=O)c3ccc(O)c(OC)c3)CC21 (stereo partly shown) [I-32] | > 10 | > 100 | –
CNC(=O)[C@H](CCCc1ccccc1)NC(=O)C1CN(C(=O)Cc2c[nH]c3cc(Cl)ccc23)CC2CN(C(=O)c3ccccc3)CC21 (stereo partly shown) [I-50] | > 10 | 1 to 10 | –
CNC(=O)[C@@H](C)NC(=O)C1CN(C(=O)Cc2c[nH]c3cc(Cl)ccc23)CC2CN(C(=O)c3ccc(OC(C)C)c(OC)c3)CC21 (stereo partly shown) [I-124] | > 10 | > 100 | –
CNC(=O)[C@H](CCCc1ccccc1)NC(=O)C1CN(C(=O)Cc2c[nH]c3cc(Cl)ccc23)CC2CN(C(=O)c3ccc4c(c3)OCCO4)CC21 (stereo partly shown) [I-77] | > 10 | > 100 | –
CNC(=O)[C@H](CCCc1ccccc1)NC(=O)C1CN(C(=O)Cc2c[nH]c3cc(Cl)ccc23)CC2CN(C(=O)c3cc(-c4ccccc4)[nH]n3)CC21 (stereo partly shown) [I-19] | 0.5 to 5 | ≤ 1 | > 10
CNC(=O)[C@H](C)NC(=O)C1CN(C(=O)Cc2c[nH]c3cc(Cl)ccc23)CC2CN(C(=O)c3ccc(OC(C)C)c(OC)c3)CC21 (stereo partly shown) [I-125] | – | 10 to 100 | –
CNC(=O)[C@H](CCCc1ccccc1)NC(=O)C1CN(C(=O)Cc2c[nH]c3cc(Cl)ccc23)CC2CN(C(=O)c3ccc4[nH]nnc4c3)CC21 (stereo partly shown) [I-62] | > 10 | > 100 | –
CNC(=O)[C@H](Cc1ccccc1)NC(=O)C1CN(C(=O)Cc2c[nH]c3cc(Cl)ccc23)CC2CN(C(=O)c3ccc(OC(C)C)c(OC)c3)CC21 (stereo partly shown) [I-122] | – | 10 to 100 | –
CNC(=O)[C@H](CCCc1ccccc1)NC(=O)C1CN(C(=O)Cc2c[nH]c3cc(Cl)ccc23)CC2CN(C(=O)c3cccc(Oc4ccccc4)c3)CC21 (stereo partly shown) [I-35] | > 10 | > 100 | –
CNC(=O)[C@H](CCCc1ccccc1)NC(=O)C1CN(C(=O)Cc2c[nH]c3cc(Cl)ccc23)CC2CN(C(=O)c3cnc4nccn4c3)CC21 (stereo partly shown) [I-64] | > 10 | 10 to 100 | –
CNC(=O)[C@H](CCCc1ccccc1)NC(=O)C1CN(C(=O)Cc2c[nH]c3c(Cl)cccc23)CC2CN(C(=O)c3ccc(OC(C)C)c(OC)c3)CC21 (stereo partly shown) [I-222] | – | 1 to 10 | –
CNC(=O)[C@H](CCCC1CCCCC1)NC(=O)C1CN(C(=O)Cc2c[nH]c3cc(Cl)ccc23)CC2CN(C(=O)c3ccc(OC(C)C)c(OC)c3)CC21 (stereo partly shown) [I-113] | > 10 | – | 0.5 to 5
CNC(=O)[C@H](CCCc1ccccc1)NC(=O)C1CN(C(=O)c2coc(Cl)n2)CC2CN(C(=O)c3ccc(OC(C)C)c(OC)c3)CC21 (single isomer, unassigned) [I-233] | > 10 | – | > 10
CNC(=O)[C@H](CCCc1ccccc1)NC(=O)C1CN(C(=O)Cc2c[nH]c3cc(Cl)ccc23)CC2CN(C(=O)c3ccc(-c4cncnc4)cc3)CC21 (stereo partly shown) [I-59] | > 10 | – | > 10
CNC(=O)[C@H](CCCc1ccccc1)NC(=O)C1CN(C(=O)Cc2c[nH]c3cc(Cl)ccc23)CC2CN(C(=O)c3cc4cc(C)ccc4[nH]3)CC21 (stereo partly shown) [I-38] | > 10 | – | > 10
COc1cc(C(=O)N2CC3CN(C(=O)Cc4c[nH]c5cc(Cl)ccc45)CC(C(=O)Nc4ccnc(Cc5ccccc5)c4)C3C2)ccc1OC(C)C (stereo not shown) [I-239] | > 10 | – | 0.5 to 5
COc1cc(C(=O)N2CC3CN(C(=O)Cc4c[nH]c5cc(Cl)ccc45)CC(C(=O)N[C@H]4CCCN(Cc5ccccc5)C4)C3C2)ccc1OC(C)C (single isomer, unassigned) [I-118] | > 10 | – | > 10
